Reference: PubChem BioAssay AID2060513 (Molecular Pharmacology Branch, DTP, NCI, 2025)
pIC50: −log10 of the molar value.

System: 299254-011-R-J1-PDC complex spheroids viability
Experiment: Anticancer human tumor 299254-011-R-J1-PDC patient-derived melanoma cell line growth inhibition [GQUAD]
Settings: for pIC50: curve of first compound; for viability, T/C: stronger effect = lower value
Summary of the method: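 Viability of tumor cells grown as complex spheroids with endothelial and stromal cells, exposed to drug combinations. Top concentration at or near clinical Cmax (else 10 microM), diluted in half-log increments.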

[1] = second compound 0.0316 µM, first compound 0.0316 µM
[2] = second compound 0.0316 µM, first compound 0.1 µM
[3] = second compound 0.0316 µM, first compound 0.316 µM
[4] = second compound 0.0316 µM, first compound 1 µM
[5] = second compound 0.0316 µM, first compound 3.16 µM
[6] = second compound 0.0316 µM, first compound 10 µM
[7] = second compound 0.1 µM, first compound 0.0316 µM
[8] = second compound 0.1 µM, first compound 0.1 µM
[9] = second compound 0.1 µM, first compound 0.316 µM
[10] = second compound 0.1 µM, first compound 1 µM
[11] = second compound 0.1 µM, first compound 3.16 µM
[12] = second compound 0.1 µM, first compound 10 µM
[13] = second compound 0.316 µM, first compound 0.0316 µM
[14] = second compound 0.316 µM, first compound 0.1 µM
[15] = second compound 0.316 µM, first compound 0.316 µM
[16] = second compound 0.316 µM, first compound 1 µM
[17] = second compound 0.316 µM, first compound 3.16 µM
[18] = second compound 0.316 µM, first compound 10 µM
[19] = second compound 1 µM, first compound 0.0316 µM
[20] = second compound 1 µM, first compound 0.1 µM
[21] = second compound 1 µM, first compound 0.316 µM
[22] = second compound 1 µM, first compound 1 µM
[23] = second compound 1 µM, first compound 3.16 µM
[24] = second compound 1 µM, first compound 10 µM
[25] = second compound 3.16 µM, first compound 0.0316 µM
[26] = second compound 3.16 µM, first compound 0.1 µM
[27] = second compound 3.16 µM, first compound 0.316 µM
[28] = second compound 3.16 µM, first compound 1 µM
[29] = second compound 3.16 µM, first compound 3.16 µM
[30] = second compound 3.16 µM, first compound 10 µM
[31] = second compound 10 µM, first compound 0.0316 µM
[32] = second compound 10 µM, first compound 0.1 µM
[33] = second compound 10 µM, first compound 0.316 µM
[34] = second compound 10 µM, first compound 1 µM
[35] = second compound 10 µM, first compound 3.16 µM
[36] = second compound 10 µM, first compound 10 µM
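Note: spheroids exposed to the agents for seven days before readout.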
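Throughout, for viability, T/C: percent viability relative to DMSO vehicle control wells = 100%.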

## CC1COCCN1c1cc(-c2ccnn2C)c2ccnc(-c3ccn[nH]3)c2n1 (stereo not given) + CN(C)c1ccc(Nc2c3ccc(NC(=O)CCN4CCCC4)cc3nc3cc(NC(=O)CCN4CCCC4)ccc23)cc1
Second compound 0.0316 µM
  pIC50: 6.73
Second compound 0.1 µM
  pIC50: 6.72
Second compound 0.316 µM
  pIC50: 6.69
Second compound 1 µM
  pIC50: 6.69
Second compound 3.16 µM
  pIC50: 6.67
Second compound 10 µM
  pIC50: 6.67
[1]
  viability, T/C: 84.5%
[2]
  viability, T/C: 67.2%
[3]
  viability, T/C: 35%
[4]
  viability, T/C: 17.3%
[5]
  viability, T/C: 13%
[6]
  viability, T/C: 11.2%
[7]
  viability, T/C: 85.5%
[8]
  viability, T/C: 74.9%
[9]
  viability, T/C: 29.6%
[10]
  viability, T/C: 20%
[11]
  viability, T/C: 14.2%
[12]
  viability, T/C: 13%
[13]
  viability, T/C: 91.8%
[14]
  viability, T/C: 77.1%
[15]
  viability, T/C: 33.4%
[16]
  viability, T/C: 19%
[17]
  viability, T/C: 15.1%
[18]
  viability, T/C: 11.8%
[19]
  viability, T/C: 107%
[20]
  viability, T/C: 71.3%
[21]
  viability, T/C: 36.1%
[22]
  viability, T/C: 21.2%
[23]
  viability, T/C: 14.9%
[24]
  viability, T/C: 13.8%
[25]
  viability, T/C: 102%
[26]
  viability, T/C: 73.7%
[27]
  viability, T/C: 37%
[28]
  viability, T/C: 24.5%
[29]
  viability, T/C: 17.9%
[30]
  viability, T/C: 15.7%
[31]
  viability, T/C: 80.6%
[32]
  viability, T/C: 74.4%
[33]
  viability, T/C: 37.3%
[34]
  viability, T/C: 23.6%
[35]
  viability, T/C: 18.8%
[36]
  viability, T/C: 16.9%

## CC1COCCN1c1cc(C2(O)CC3CCC(C2)O3)c2cnn(-c3ccn[nH]3)c2n1 (stereo not given) + CN(C)c1ccc(Nc2c3ccc(NC(=O)CCN4CCCC4)cc3nc3cc(NC(=O)CCN4CCCC4)ccc23)cc1
Second compound 0.0316 µM
  pIC50: 6.85
Second compound 0.1 µM
  pIC50: 7.00
Second compound 0.316 µM
  pIC50: 6.74
Second compound 1 µM
  pIC50: 6.86
Second compound 3.16 µM
  pIC50: 6.83
Second compound 10 µM
  pIC50: 6.93
[1]
  viability, T/C: 77.1%
[2]
  viability, T/C: 60.4%
[3]
  viability, T/C: 25.2%
[4]
  viability, T/C: 18%
[5]
  viability, T/C: 13.7%
[6]
  viability, T/C: 6.37%
[7]
  viability, T/C: 87%
[8]
  viability, T/C: 51.1%
[9]
  viability, T/C: 24.2%
[10]
  viability, T/C: 17.4%
[11]
  viability, T/C: 12.4%
[12]
  viability, T/C: 5.43%
[13]
  viability, T/C: 82.9%
[14]
  viability, T/C: 73%
[15]
  viability, T/C: 27.6%
[16]
  viability, T/C: 16.7%
[17]
  viability, T/C: 9.78%
[18]
  viability, T/C: 5.4%
[19]
  viability, T/C: 93.8%
[20]
  viability, T/C: 59.3%
[21]
  viability, T/C: 25.9%
[22]
  viability, T/C: 17.8%
[23]
  viability, T/C: 12.5%
[24]
  viability, T/C: 5.02%
[25]
  viability, T/C: 86.8%
[26]
  viability, T/C: 61%
[27]
  viability, T/C: 27.7%
[28]
  viability, T/C: 19.2%
[29]
  viability, T/C: 14%
[30]
  viability, T/C: 6.53%
[31]
  viability, T/C: 98.5%
[32]
  viability, T/C: 54%
[33]
  viability, T/C: 25.9%
[34]
  viability, T/C: 13.8%
[35]
  viability, T/C: 15.2%
[36]
  viability, T/C: 7.27%

## CC1COCCN1c1cc(C2(S(C)(=N)=O)CC2)nc(-c2ccnc3[nH]ccc23)n1 (stereo not given) + CN(C)c1ccc(Nc2c3ccc(NC(=O)CCN4CCCC4)cc3nc3cc(NC(=O)CCN4CCCC4)ccc23)cc1
Second compound 0.0316 µM
  pIC50: 5.20
Second compound 0.1 µM
  pIC50: 5.41
Second compound 0.316 µM
  pIC50: 5.30
Second compound 1 µM
  pIC50: 5.35
Second compound 3.16 µM
  pIC50: 5.44
Second compound 10 µM
  pIC50: 5.54
[1]
  viability, T/C: 99.6%
[2]
  viability, T/C: 106%
[3]
  viability, T/C: 98%
[4]
  viability, T/C: 93.1%
[5]
  viability, T/C: 75.6%
[6]
  viability, T/C: 32.2%
[7]
  viability, T/C: 116%
[8]
  viability, T/C: 128%
[9]
  viability, T/C: 101%
[10]
  viability, T/C: 77.5%
[11]
  viability, T/C: 59.7%
[12]
  viability, T/C: 27.9%
[13]
  viability, T/C: 105%
[14]
  viability, T/C: 98.2%
[15]
  viability, T/C: 131%
[16]
  viability, T/C: 82.4%
[17]
  viability, T/C: 71.4%
[18]
  viability, T/C: 23.5%
[19]
  viability, T/C: 114%
[20]
  viability, T/C: 95.3%
[21]
  viability, T/C: 85%
[22]
  viability, T/C: 78%
[23]
  viability, T/C: 65.5%
[24]
  viability, T/C: 27.9%
[25]
  viability, T/C: 125%
[26]
  viability, T/C: 100%
[27]
  viability, T/C: 87.3%
[28]
  viability, T/C: 80.4%
[29]
  viability, T/C: 53.2%
[30]
  viability, T/C: 28.3%
[31]
  viability, T/C: 105%
[32]
  viability, T/C: 117%
[33]
  viability, T/C: 101%
[34]
  viability, T/C: 98%
[35]
  viability, T/C: 46.1%
[36]
  viability, T/C: 32%

## COc1ccc([C@@H](O)c2cc(-c3ncnc4cc(N5CCOCC5)ccc34)c(F)cc2Cl)nn1 + CN(C)c1ccc(Nc2c3ccc(NC(=O)CCN4CCCC4)cc3nc3cc(NC(=O)CCN4CCCC4)ccc23)cc1
Second compound 0.0316 µM
  pIC50: < 5.00
Second compound 0.1 µM
  pIC50: < 5.00
Second compound 0.316 µM
  pIC50: 5.02
Second compound 1 µM
  pIC50: < 5.00
Second compound 3.16 µM
  pIC50: < 5.00
Second compound 10 µM
  pIC50: < 5.00
[1]
  viability, T/C: 105%
[2]
  viability, T/C: 116%
[3]
  viability, T/C: 104%
[4]
  viability, T/C: 96.6%
[5]
  viability, T/C: 85.9%
[6]
  viability, T/C: 72.5%
[7]
  viability, T/C: 105%
[8]
  viability, T/C: 124%
[9]
  viability, T/C: 98.3%
[10]
  viability, T/C: 108%
[11]
  viability, T/C: 106%
[12]
  viability, T/C: 61.6%
[13]
  viability, T/C: 96.8%
[14]
  viability, T/C: 94.5%
[15]
  viability, T/C: 90%
[16]
  viability, T/C: 106%
[17]
  viability, T/C: 96.4%
[18]
  viability, T/C: 48.1%
[19]
  viability, T/C: 124%
[20]
  viability, T/C: 111%
[21]
  viability, T/C: 106%
[22]
  viability, T/C: 106%
[23]
  viability, T/C: 92.6%
[24]
  viability, T/C: 59.1%
[25]
  viability, T/C: 96.5%
[26]
  viability, T/C: 126%
[27]
  viability, T/C: 113%
[28]
  viability, T/C: 93.1%
[29]
  viability, T/C: 117%
[30]
  viability, T/C: 68.5%
[31]
  viability, T/C: 123%
[32]
  viability, T/C: 112%
[33]
  viability, T/C: 97.5%
[34]
  viability, T/C: 106%
[35]
  viability, T/C: 88.9%
[36]
  viability, T/C: 50.8%

## O=C(c1cc(Cc2n[nH]c(=O)c3ccccc23)ccc1F)N1CCN(C(=O)C2CC2)CC1 + CN(C)c1ccc(Nc2c3ccc(NC(=O)CCN4CCCC4)cc3nc3cc(NC(=O)CCN4CCCC4)ccc23)cc1
Second compound 0.0316 µM
  pIC50: < 5.00
Second compound 0.1 µM
  pIC50: < 5.00
Second compound 0.316 µM
  pIC50: < 5.00
Second compound 1 µM
  pIC50: < 5.00
Second compound 3.16 µM
  pIC50: < 5.00
Second compound 10 µM
  pIC50: < 5.00
[1]
  viability, T/C: 81.9%
[2]
  viability, T/C: 88.2%
[3]
  viability, T/C: 94%
[4]
  viability, T/C: 92.7%
[5]
  viability, T/C: 89.4%
[6]
  viability, T/C: 78.1%
[7]
  viability, T/C: 78.9%
[8]
  viability, T/C: 78.1%
[9]
  viability, T/C: 85.4%
[10]
  viability, T/C: 96.8%
[11]
  viability, T/C: 90.7%
[12]
  viability, T/C: 80.9%
[13]
  viability, T/C: 95.6%
[14]
  viability, T/C: 89.1%
[15]
  viability, T/C: 87.5%
[16]
  viability, T/C: 82.8%
[17]
  viability, T/C: 96.1%
[18]
  viability, T/C: 85.5%
[19]
  viability, T/C: 87.9%
[20]
  viability, T/C: 95.2%
[21]
  viability, T/C: 96%
[22]
  viability, T/C: 101%
[23]
  viability, T/C: 106%
[24]
  viability, T/C: 80.2%
[25]
  viability, T/C: 79.7%
[26]
  viability, T/C: 86.9%
[27]
  viability, T/C: 99.9%
[28]
  viability, T/C: 91.1%
[29]
  viability, T/C: 95.8%
[30]
  viability, T/C: 68.1%
[31]
  viability, T/C: 96.2%
[32]
  viability, T/C: 92.3%
[33]
  viability, T/C: 82.8%
[34]
  viability, T/C: 89.2%
[35]
  viability, T/C: 87.6%
[36]
  viability, T/C: 95%
